We go through 2 compounds from PMC4303209, “A novel phosphatidylinositol 3-kinase (PI3K) inhibitor directs a potent FOXO-dependent, p53-independent cell cycle arrest phenotype characterized by the differential induction of a subset of FOXO-regulated genes” (Breast Cancer Research : BCR, 2014).

The test system of series [1] is serine 253-phosphorylated FOXO3a. As to the kind of experiment: Immunoblot of FOXO3a phosphorylation in MCF-7 or U2OS cells. Type of series: cell-based, human. Conditions: breast or osteosarcoma cancer cells; six hours post treatment. (In general: Immunoblotting shows a protein as a band on a membrane.)
Series [2] concerns known toxicity pathways and canonical stress pathways. Description: Ingenuity Pathway Tox Analysis of genome-wide array data. Type of series: cell-based, human. Particulars: vs DMSO; MCF-7 array data. The text has this:
While our results highlight that the primary cellular response is an anti-proliferative response (as opposed to an apoptotic response), for the development of ETP-45658 as a potential therapeutic, we questioned if ETP-45658 exposure was associated with any degree of toxicity, one of the most fundamental questions for any proposed therapeutic. We conducted a genome-wide analysis utilising an Ingenuity Pathway Analysis algorithm to address if any known toxicity pathway(s) were activated or induced after treatment with ETP-45658 (or by the reference compound PI-103). This included an extensive evaluation of the cardiac necrosis stress cascade, genes implicated in kidney failure, liver necrosis and liver hematomegaly. Furthermore, we also questioned if, on a genome-wide scale, any know canonical stress pathways were activated by ETP-45658 (or PI-103) treatment. This included the p53 pathway, PTEN aldosterone, ErbB2-ErbB3 and the ERK-MAPK signalling cascades.
Figure 2 Focused toxicity and safety assessment of ETP-45658.

For the next series, the target named is mTOR (Homo sapiens, UniProt P42345). Description: mTOR kinase assay (LanthaScreen). Type of series: biochemical. Particulars: for inhibitory activity against mTOR: Figure S1C. The protocol: The kinase activity of PI3Kα, PI3Kβ, PI3Kδ and PI3Kγ, mutant PI3Kα (H1047R and E542K) mammalian target of rapamycin (mTOR) and DNA-PK was measured as described previously. The protein kinase assays depicted in Figure S1 in Additional file 1 and Table S2 in Additional file 2 were performed at ProQinase, GmbH [18].
Supplementary file 13058_2014_482_MOESM1_ESM.jpeg: Additional file 1: Figure S1.: Comparative analysis of ETP-45658 and PI-103. (A) Chemical structure of ETP-45658 and PI-103. (B) Physiochemical properties of ETP-45658 and PI-103, including molecular polar surface area (PSA), partition coefficient (LogP), ACD clogD and solubility at two different pH values including Lipinsky’s Rule of Five (RoF) analysis. (C) Inhibitory activity against PI3K and mTOR. The kinase activity of PI3K was measured by using the commercial PI3-kinase HTRF™ assay mTOR activity by LanthaScreen™. (D) ETP-45658 and PI-103 screen against a panel of 24 kinases. The value shown indicates kinase inhibition (percentage +/− standard deviation) at 10 μM. (E) Migration of MDA-MB231 cells in a two compartment Boyden chamber for 72 hours in the presence of DMSO, ETP-45658 or PI-103 (N = 3). (JPEG 662 KB)
In general terms: In TR-FRET formats the signal depends on donor and acceptor labels being close together.

The target of series [3] is panel of 24 representative kinases. As to the kind of experiment: Protein kinase panel screen (ProQinase). The format is biochemical, human. Particulars: 10 μM. As to the method: (§1) The protein kinase assays depicted in Figure S1 in Additional file 1 and Table S2 in Additional file 2 were performed at ProQinase, GmbH [18].
(§2) Our first objective was to analyse the biological activity of ETP-45658 including the physical and chemical properties of this compound compared to the reference pan-class I PI3K and mTOR inhibitor PI-103 [9]. We characterised the structure of each compound (Figure S1A in Additional file 1) and conducted the in silico analysis of each compound to measure their physiochemical properties (Figure S1B in Additional file 1). We determined the molecular polar surface area (PSA) of each compound, the partition coefficient, the distribution coefficient, compound solubility and the number of hydrogen donors and acceptors. […] Each indicated protein kinase activity was assayed following 10 μM treatment with either compound.
(§3) Supplementary file 13058_2014_482_MOESM1_ESM.jpeg: Additional file 1: Figure S1.: Comparative analysis of ETP-45658 and PI-103. (A) Chemical structure of ETP-45658 and PI-103. (B) Physiochemical properties of ETP-45658 and PI-103, including molecular polar surface area (PSA), partition coefficient (LogP), ACD clogD and solubility at two different pH values including Lipinsky’s Rule of Five (RoF) analysis. […] The kinase activity of PI3K was measured by using the commercial PI3-kinase HTRF™ assay mTOR activity by LanthaScreen™. […]

On the set-up of series [4]: method as in PMID 17575152. Particulars: cited from earlier work.
Series [5] has as its system PC3, MCF7, MV4.11, T47D, HCT-116 and NCIH46 cells. Description: cells. The format is cell-based. Particulars: Homo sapiens; range over all tested cell lines; MTT 72 hours; read-out: EC50 value for the inhibition of proliferation, inhibitory range.
Procedure: Cells were seeded in 96-well microtitre plates. Compounds (in DMSO) were added to each well (at a final concentration of 10 μM). The medium was removed from the cells and replaced with 0.2 ml of medium containing either compound for 72 hours and then processed for MTT assay (Promega Corp, Madison, WI, USA) N = 6.
We determined the EC50 value for the inhibition of proliferation in each of the following cell lines, PC3, MCF7, MV4.11, T47D, HCT-116 and NCIH46 cells.
The test system of the next series is mutated BRAF. As to the kind of experiment: Protein kinase panel screen (ProQinase), mutated BRAF. Type of series: biochemical. Conditions: 10 μM. As to the method: as §1, §2, §3
The test system of series [6] is FOXO3a promoter recruitment in MCF-7 or MDA-MB231 cells. Description: Chromatin immunoprecipitation (ChIP) for FOXO3a promoter recruitment. The format is cell-based, human. Particulars: by six hours post treatment. The protocol:
Chromatin immunoprecipitation (ChIP) assays were performed essentially the same as described in [28]. Briefly, cells were fixed with 1% formaldehyde, and then whole-cell lysates were prepared. Protein lysate was subjected to ChIP with the indicated antibodies, followed by DNA purification (Invitrogen, Waltham, MA, USA). ChIP-enriched DNA was analyzed by PCR with the indicated primer sets (Table S1 in Additional file 3) purchased from NZYTech (Lisbon, Portugal). Visualization of bands was achieved using a BioRad Chemidoc XRS+ (BioRad) and quantified using the Image Lab software (BioRad).
Figure 5 Chromatin immunoprecipitation analysis for FOXO3a promoter recruitment. (A) Chromatin immunoprecipitation (ChIP) assays for FOXO3a following ETP-45658 treatment at three or six hours of MCF-7 or MDA-MB231 cells for […], CDKN1B, BCL2L11or FASLG. IgG indicates no specific antibody used and for simplicity, only inputs from our MCF-7 samples are shown. (B and C) Quantification of our ChIP gels normalised to inputs from each respective cell line. Error bars indicate standard deviation, N = 3.

Each structure is given as a SMILES string. pEC50: −log10 of the molar value.

Take `Oc1cccc(-c2nc(N3CCOCC3)c3oc4ncccc4c3n2)c1` [PI-103]: in series [1], the “serine 253-phosphorylated FOXO3a” value was “almost complete absence”. Also, in series [2], the “induction of known toxicity pathways (Ingenuity Pathway Tox Analysis)” value was “Neither ETP-45658 (nor PI-103) treatment significantly induced any known toxicity pathways”. Also, at mTOR, the “inhibitory activity against mTOR” value was “significantly less potent”. The “kinases significantly inhibited in panel of 24 kinases” value in series [3] was “only mutated BRAF was significantly inhibited”. The aqueous solubility entry in series [4] is “limited aqueous solubility”. Further, in series [5], the pEC50 was 5.75 to 7.31. For the same compound, the average percent inhibition with mutated BRAF was found to be 57.7%.

With `Cn1ncc2c(N3CCOCC3)nc(-c3cccc(O)c3)nc21` [ETP-45658], the “serine 253-phosphorylated FOXO3a” value in series [1] is “almost complete absence”. Also, the “induction of known toxicity pathways (Ingenuity Pathway Tox Analysis)” value in series [2] is “Neither ETP-45658 (nor PI-103) treatment significantly induced any known toxicity pathways”. Besides, the “inhibitory activity against mTOR” value at mTOR is reported as “inhibited”. The “potency against mTOR relative to PI-103” value at mTOR (compared to reference compound PI-103) was “almost three times more potent”. Also, the “kinases significantly inhibited in panel of 24 kinases” value in series [3] was “only mutated BRAF was significantly inhibited”. Further, in series [6], the “FOXO3a promoter recruitment (CCNG2, CDKN1B, BCL2L11, FASLG)” value is recorded as “statistically significant FOXO3a promoter recruitment”. In the series with mutated BRAF, this compound returned an average percent inhibition of 38%.
